Experimental data: publication PMC5218480 (PLoS ONE, 2017)

System: MV-4-11 cells
Test: Gene expression microarray analysis (Affymetrix PrimeView) and GSEA
Format: cell-based, human
Set-up: RFU PODN (11730768_x_at) / Fold change /veh PODN (11730768_x_at) / RFU LINC00158 (11744669_a_at) / Fold change /veh LINC00158 (11744669_a_at) / RFU DUSP10 (11751237_a_at) / Fold change /veh DUSP10 (11751237_a_at) / RFU ID3 (11757404_x_at) / Fold change /veh ID3 (11757404_x_at) / RFU PLEKHG5 (11737974_s_at) / Fold change /veh PLEKHG5 (11737974_s_at) / RFU LRRC4B (11730491_at) / Fold change /veh LRRC4B (11730491_at) / RFU GIMAP4 (11747438_a_at) / Fold change /veh GIMAP4 (11747438_a_at) / RFU KRT8 (11758183_x_at) / Fold change /veh KRT8 (11758183_x_at) / RFU CNN1 (11734310_a_at) / Fold change /veh CNN1 (11734310_a_at) / RFU VPS37D (11726825_at) / Fold change /veh VPS37D (11726825_at) / RFU C10orf10 (11716522_x_at) / Fold change /veh C10orf10 (11716522_x_at) / RFU KIR2DL2 /// KIR2DL4 /// KIR2DL5A /// KIR2DL5B /// KIR2DS1 /// KIR2DS2 /// KIR2DS3 /// KIR2DS4 /// KIR3DL3 /// KIR3DL3 /// KIR3DS1 (11738374_at) / Fold change /veh KIR2DL2 /// KIR2DL4 /// KIR2DL5A /// KIR2DL5B /// KIR2DS1 /// KIR2DS2 /// KIR2DS3 /// KIR2DS4 /// KIR3DL3 /// KIR3DL3 /// KIR3DS1 (11738374_at) / RFU C1QL1 (11718748_at) / Fold change /veh C1QL1 (11718748_at) / RFU TMPRSS4 (11747572_a_at) / Fold change /veh TMPRSS4 (11747572_a_at) / RFU HAMP (11756126_x_at) / Fold change /veh HAMP (11756126_x_at) / RFU RNFT2 (11725882_a_at) / Fold change /veh RNFT2 (11725882_a_at) / RFU NR4A2 (11747474_a_at) / Fold change /veh NR4A2 (11747474_a_at) / RFU ABCC12 (11746883_a_at) / Fold change /veh ABCC12 (11746883_a_at) / RFU TMEM136 (11760407_x_at) / Fold change /veh TMEM136 (11760407_x_at) / RFU CLDN22 /// WWC2 (11732394_at) / Fold change /veh CLDN22 /// WWC2 (11732394_at) / RFU HLA-DPB1 (11760878_x_at) / Fold change /veh HLA-DPB1 (11760878_x_at) / RFU SPINT1 (11716480_a_at) / Fold change /veh SPINT1 (11716480_a_at) / RFU GAP43 (11754022_s_at) / Fold change /veh GAP43 (11754022_s_at) / RFU A4GNT (11735810_at) / Fold change /veh A4GNT (11735810_at) / RFU PRB3 (11715151_x_at) / Fold change /veh PRB3 (11715151_x_at) / RFU TUBB4B (11761932_at) / Fold change /veh TUBB4B (11761932_at) / RFU CAPN14 (11732068_a_at) / Fold change /veh CAPN14 (11732068_a_at) / RFU TMCC2 (11721928_a_at) / Fold change /veh TMCC2 (11721928_a_at) / RFU IRGQ (11745062_a_at) / Fold change /veh IRGQ (11745062_a_at) / RFU FAM174B (11720279_a_at) / Fold change /veh FAM174B (11720279_a_at) / RFU TMPRSS4 (11748680_a_at) / Fold change /veh TMPRSS4 (11748680_a_at) / RFU FAM212B (11763350_a_at) / Fold change /veh FAM212B (11763350_a_at) / RFU PLEKHG5 (11743358_a_at) / Fold change /veh PLEKHG5 (11743358_a_at) / RFU ZSCAN30 (11745921_a_at) / Fold change /veh ZSCAN30 (11745921_a_at) / RFU CMKLR1 (11741424_a_at) / Fold change /veh CMKLR1 (11741424_a_at) / RFU LOC101060620 /// MAPK8IP1 (11723275_at) / Fold change /veh LOC101060620 /// MAPK8IP1 (11723275_at) / RFU SPTSSB (11747773_x_at) / Fold change /veh SPTSSB (11747773_x_at) / RFU PRSS12 (11739890_at) / Fold change /veh PRSS12 (11739890_at) / RFU BIN1 (11741810_x_at) / Fold change /veh BIN1 (11741810_x_at) / RFU WNT11 (11732464_a_at) / Fold change /veh WNT11 (11732464_a_at) / RFU C10orf10 (11716521_a_at) / Fold change /veh C10orf10 (11716521_a_at) / RFU C5orf56 (11738089_at) / Fold change /veh C5orf56 (11738089_at) / RFU CYB561 (11721691_x_at) / Fold change /veh CYB561 (11721691_x_at) / RFU ANKRD19P (11752326_a_at) / Fold change /veh ANKRD19P (11752326_a_at) / RFU OR2T12 /// OR2T33 /// OR2T8 (11738714_s_at) / Fold change /veh OR2T12 /// OR2T33 /// OR2T8 (11738714_s_at) / RFU VCAN (11748164_a_at) / Fold change /veh VCAN (11748164_a_at) / RFU JSRP1 (11732532_at) / Fold change /veh JSRP1 (11732532_at) / RFU KRTAP10-11 (11738290_x_at) / Fold change /veh KRTAP10-11 (11738290_x_at) / RFU MYO3A (11730013_a_at) / Fold change /veh MYO3A (11730013_a_at) / RFU EBF3 (11725865_a_at) / Fold change /veh EBF3 (11725865_a_at) / RFU CAMK2N1 (11719241_x_at) / Fold change /veh CAMK2N1 (11719241_x_at) / RFU C5orf56 (11738088_a_at) / Fold change /veh C5orf56 (11738088_a_at) / RFU OLFML3 (11715873_a_at) / Fold change /veh OLFML3 (11715873_a_at) / RFU LOC100653217 /// NTM (11731650_a_at) / Fold change /veh LOC100653217 /// NTM (11731650_a_at) / RFU MAPK11 (11762145_a_at) / Fold change /veh MAPK11 (11762145_a_at) / RFU FIZ1 (11724087_x_at) / Fold change /veh FIZ1 (11724087_x_at) / RFU OASL (11726364_x_at) / Fold change /veh OASL (11726364_x_at) / RFU SOX15 (11748057_x_at) / Fold change /veh SOX15 (11748057_x_at) / RFU CD79A (11719716_a_at) / Fold change /veh CD79A (11719716_a_at) / RFU HIST1H1D (11736915_at) / Fold change /veh HIST1H1D (11736915_at) / RFU CASKIN2 (11723855_a_at) / Fold change /veh CASKIN2 (11723855_a_at) / RFU LOC730098 (11760151_x_at) / Fold change /veh LOC730098 (11760151_x_at) / RFU OR4N2 (11742367_at) / Fold change /veh OR4N2 (11742367_at) / RFU PRRT2 (11749266_a_at) / Fold change /veh PRRT2 (11749266_a_at) / RFU SNX32 (11753110_a_at) / Fold change /veh SNX32 (11753110_a_at) / RFU CDHR5 (11726645_a_at) / Fold change /veh CDHR5 (11726645_a_at) / RFU RCAN1 (11760418_a_at) / Fold change /veh RCAN1 (11760418_a_at) / RFU FAM167A (11723789_a_at) / Fold change /veh FAM167A (11723789_a_at) / RFU FAM26E (11764081_at) / Fold change /veh FAM26E (11764081_at) / RFU ISYNA1 (11749810_s_at) / Fold change /veh ISYNA1 (11749810_s_at) / RFU ACY1 (11761880_at) / Fold change /veh ACY1 (11761880_at) / RFU 11764098_at / Fold change /veh 11764098_at / RFU SAMD14 (11745864_x_at) / Fold change /veh SAMD14 (11745864_x_at) / RFU NPB (11741838_a_at) / Fold change /veh NPB (11741838_a_at) / RFU TMPRSS6 (11731388_a_at) / Fold change /veh TMPRSS6 (11731388_a_at) / RFU KRTAP10-2 (11738614_at) / Fold change /veh KRTAP10-2 (11738614_at) / RFU ARHGAP8 /// PRR5-ARHGAP8 (11727945_x_at) / Fold change /veh ARHGAP8 /// PRR5-ARHGAP8 (11727945_x_at) / RFU KRTAP5-7 /// NADSYN1 (11734609_at) / Fold change /veh KRTAP5-7 /// NADSYN1 (11734609_at) / RFU RASL12 (11751679_a_at) / Fold change /veh RASL12 (11751679_a_at) / RFU CDKN2B (11736163_a_at) / Fold change /veh CDKN2B (11736163_a_at) / RFU PRF1 (11729649_at) / Fold change /veh PRF1 (11729649_at) / RFU, ZNF638 /// ZNF638-IT1 / Fold change vs veh, ZNF638 /// ZNF638-IT1 / RFU, PANK3 / Fold change vs veh, PANK3 / RFU, SH3YL1 / Fold change vs veh, SH3YL1 / RFU, ZEB2 / Fold change vs veh, ZEB2 / RFU, NRIP1 / Fold change vs veh, NRIP1 / RFU, PTTG1IP / Fold change vs veh, PTTG1IP / RFU, CAPN2 / Fold change vs veh, CAPN2 / RFU, MED14 / Fold change vs veh, MED14 / RFU, SNORA58 / Fold change vs veh, SNORA58 / RFU, C1orf63 / Fold change vs veh, C1orf63 / RFU, LRRFIP1 / Fold change vs veh, LRRFIP1 / RFU, NDUFAF7 / Fold change vs veh, NDUFAF7 / RFU, SLC12A2 / Fold change vs veh, SLC12A2 / RFU, IBTK / Fold change vs veh, IBTK / RFU, ESF1 / Fold change vs veh, ESF1 / Fold change vs veh, TMEM50B / RFU, TAOK1 / Fold change vs veh, TAOK1 / RFU, ACBD3 / Fold change vs veh, ACBD3 / RFU, TMA16 / Fold change vs veh, TMA16 / RFU, RWDD3 / Fold change vs veh, RWDD3 / RFU, BCAT1 / Fold change vs veh, BCAT1 / RFU, EDEM3 / Fold change vs veh, EDEM3 / RFU, TMEM33 / Fold change vs veh, TMEM33 / RFU, WDR75 / Fold change vs veh, WDR75 / RFU, AHCTF1 / Fold change vs veh, AHCTF1 / RFU, TFRC / Fold change vs veh, TFRC / RFU, ZDHHC17 / Fold change vs veh, ZDHHC17 / RFU, NOM1 / Fold change vs veh, NOM1 / RFU, ARL8B / Fold change vs veh, ARL8B / RFU, ZBTB11 / Fold change vs veh, ZBTB11 / RFU, TAMM41 / Fold change vs veh, TAMM41 / RFU, KIAA1704 /// LOC100996395 / Fold change vs veh, KIAA1704 /// LOC100996395 / RFU, ING1 / Fold change vs veh, ING1 / RFU, TRMT61B / Fold change vs veh, TRMT61B / RFU, FUBP3 / Fold change vs veh, FUBP3 / RFU, TP53 / Fold change vs veh, TP53 / RFU, TNKS2 / Fold change vs veh, TNKS2 / RFU, ZFP14 / Fold change vs veh, ZFP14 / RFU, ACTR2 / Fold change vs veh, ACTR2 / RFU, PPP3R1 / Fold change vs veh, PPP3R1 / RFU, PIK3R1 / Fold change vs veh, PIK3R1 / RFU, HNRNPA1 / Fold change vs veh, HNRNPA1 / RFU, RNF170 / Fold change vs veh, RNF170 / RFU, ZNF28 / Fold change vs veh, ZNF28 / RFU, RNGTT / Fold change vs veh, RNGTT / RFU, OGT / Fold change vs veh, OGT / RFU, BRD1 / Fold change vs veh, BRD1 / RFU, MARS / Fold change vs veh, MARS / RFU, ZNF655 / Fold change vs veh, ZNF655 / RFU, FAHD1 / Fold change vs veh, FAHD1 / RFU, BDP1 / Fold change vs veh, BDP1 / RFU, LRRCC1 / Fold change vs veh, LRRCC1 / RFU, ARID1A / Fold change vs veh, ARID1A / RFU, ZNF146 / Fold change vs veh, ZNF146 / RFU, ZNF330 / Fold change vs veh, ZNF330 / RFU, GPN3 / Fold change vs veh, GPN3 / RFU, C9orf123 / Fold change vs veh, C9orf123 / RFU, N4BP2L2 / Fold change vs veh, N4BP2L2 / RFU, ARFIP1 / Fold change vs veh, ARFIP1 / RFU, FAM179B / Fold change vs veh, FAM179B / RFU, BCL10 / Fold change vs veh, BCL10 / RFU, UHRF1BP1L / Fold change vs veh, UHRF1BP1L / RFU, BET1 / Fold change vs veh, BET1 / RFU, CNOT2 / Fold change vs veh, CNOT2 / RFU, ZNF268 / Fold change vs veh, ZNF268 / Fold change vs veh, ZNF507 / RFU, DGCR2 / Fold change vs veh, DGCR2 / RFU, WDSUB1 / Fold change vs veh, WDSUB1 / Fold change vs veh, HSP90B1 /// MIR3652 / RFU, ADSS / Fold change vs veh, ADSS / RFU, GK / Fold change vs veh, GK / RFU, ZNF148 / Fold change vs veh, ZNF148 / RFU, TAF9 / Fold change vs veh, TAF9 / RFU, SLC1A5 / Fold change vs veh, SLC1A5 / RFU, SLMO2 / Fold change vs veh, SLMO2 / RFU, ABCC4 / Fold change vs veh, ABCC4 / RFU, LOC101060439 /// RAP1B / Fold change vs veh, LOC101060439 /// RAP1B / RFU, RFX7 / Fold change vs veh, RFX7 / RFU, GTPBP10 / Fold change vs veh, GTPBP10 / RFU, CNEP1R1 / Fold change vs veh, CNEP1R1 / RFU, BIVM-ERCC5 /// ERCC5 / Fold change vs veh, BIVM-ERCC5 /// ERCC5 / RFU, ILF3 / Fold change vs veh, ILF3 / RFU 11762660_at / Fold change /veh 11762660_at / RFU VCAN (11757783_s_at) / Fold change /veh VCAN (11757783_s_at) / RFU DDX43 (11728927_at) / Fold change /veh DDX43 (11728927_at) / RFU KRT8 (11758188_x_at) / Fold change /veh KRT8 (11758188_x_at) / RFU NKD1 (11759106_at) / Fold change /veh NKD1 (11759106_at) / RFU SRD5A1 (11742802_a_at) / Fold change /veh SRD5A1 (11742802_a_at) / RFU TPSAB1 /// TPSB2 (11721975_s_at) / Fold change /veh TPSAB1 /// TPSB2 (11721975_s_at) / RFU GSTM3 (11746129_a_at) / Fold change /veh GSTM3 (11746129_a_at) / RFU IL23R (11737362_x_at) / Fold change /veh IL23R (11737362_x_at) / RFU TMEM51 (11727254_a_at) / Fold change /veh TMEM51 (11727254_a_at) / RFU PIWIL2 (11732686_x_at) / Fold change /veh PIWIL2 (11732686_x_at) / RFU ORM1 (11744905_x_at) / Fold change /veh ORM1 (11744905_x_at) / RFU CCDC152 (11743942_at) / Fold change /veh CCDC152 (11743942_at) / RFU ECM1 (11717891_a_at) / Fold change /veh ECM1 (11717891_a_at) / RFU IL23R (11748794_a_at) / Fold change /veh IL23R (11748794_a_at) / RFU TNFAIP8L3 (11732012_x_at) / Fold change /veh TNFAIP8L3 (11732012_x_at) / RFU MBOAT4 (11741988_at) / Fold change /veh MBOAT4 (11741988_at) / RFU 11764193_at / Fold change /veh 11764193_at / RFU TMEM53 (11763286_at) / Fold change /veh TMEM53 (11763286_at) / RFU MAGEB2 (11727129_at) / Fold change /veh MAGEB2 (11727129_at) / RFU TMEM200A (11744735_a_at) / Fold change /veh TMEM200A (11744735_a_at) / RFU CCDC152 (11751479_a_at) / Fold change /veh CCDC152 (11751479_a_at) / RFU FAM211A (11726209_a_at) / Fold change /veh FAM211A (11726209_a_at) / RFU RGS16 (11746705_a_at) / Fold change /veh RGS16 (11746705_a_at) / RFU VCAN (11755009_s_at) / Fold change /veh VCAN (11755009_s_at) / RFU RHOB (11743442_s_at) / Fold change /veh RHOB (11743442_s_at) / RFU RGS16 (11720943_a_at) / Fold change /veh RGS16 (11720943_a_at) / RFU RGS16 (11720944_at) / Fold change /veh RGS16 (11720944_at) / RFU, VPS4B / Fold change vs veh, VPS4B / RFU, CREB1 / Fold change vs veh, CREB1 / RFU, DNAJC13 / Fold change vs veh, DNAJC13 / RFU, GNAQ / Fold change vs veh, GNAQ / RFU, CDK5R1 / Fold change vs veh, CDK5R1 / RFU, ZRANB3 / Fold change vs veh, ZRANB3 / RFU, CUL4A / Fold change vs veh, CUL4A / RFU, CCNY / Fold change vs veh, CCNY / RFU, UFL1 / Fold change vs veh, UFL1 / RFU, COG3 / Fold change vs veh, COG3 / RFU, DIAPH2 / Fold change vs veh, DIAPH2 / RFU, SKA2 / Fold change vs veh, SKA2 / RFU, AFF3 / Fold change vs veh, AFF3 / RFU, LMF1 / Fold change vs veh, LMF1 / RFU, IPO11 / Fold change vs veh, IPO11 / RFU, DFFB / Fold change vs veh, DFFB / RFU, FOXP1 / Fold change vs veh, FOXP1 / RFU, CARD8 / Fold change vs veh, CARD8 / RFU, STRN3 / Fold change vs veh, STRN3 / RFU, ADK / Fold change vs veh, ADK / RFU, RASSF2 / Fold change vs veh, RASSF2 / RFU, WIPF1 / Fold change vs veh, WIPF1 / RFU, LARP1B / Fold change vs veh, LARP1B / RFU, RASA1 / Fold change vs veh, RASA1 / RFU, RB1 / Fold change vs veh, RB1 / RFU, PPFIA1 / Fold change vs veh, PPFIA1 / RFU, MAT2A / Fold change vs veh, MAT2A / RFU, CCT5 / Fold change vs veh, CCT5 / RFU, WDR92 / Fold change vs veh, WDR92 / RFU, CUX1 / Fold change vs veh, CUX1 / RFU, TTC7A / Fold change vs veh, TTC7A / RFU, TMEM135 / Fold change vs veh, TMEM135 / RFU, DEPTOR / Fold change vs veh, DEPTOR / RFU, CPM / Fold change vs veh, CPM / RFU, DNAJB6 / Fold change vs veh, DNAJB6 / RFU, CACNA2D3 / Fold change vs veh, CACNA2D3 / RFU, DTX4 / Fold change vs veh, DTX4 / RFU, TFCP2 / Fold change vs veh, TFCP2 / RFU, GMCL1 /// GMCL1P1 / Fold change vs veh, GMCL1 /// GMCL1P1 / RFU, AEBP2 / Fold change vs veh, AEBP2 / RFU, SNHG1 /// SNORD22 /// SNORD25 /// SNORD26 /// SNORD27 /// SNORD28 /// SNORD29 /// SNORD31 / Fold change vs veh, SNHG1 /// SNORD22 /// SNORD25 /// SNORD26 /// SNORD27 /// SNORD28 /// SNORD29 /// SNORD31 / Fold change (Aza/veh), C12orf56 (ProbeSet 11735607_a_at) / Fold change (ACY-1035/veh), C12orf56 (ProbeSet 11735607_a_at) / Fold change (Aza/veh), FGFR1OP (ProbeSet 11751329_s_at) / Fold change (ACY-1035/veh), FGFR1OP (ProbeSet 11751329_s_at) / Fold change (Aza/veh), VPS36 (ProbeSet 11739960_a_at) / Fold change (ACY-1035/veh), VPS36 (ProbeSet 11739960_a_at) / RFU SYPL1 (11715823_x_at) / Fold change /veh SYPL1 (11715823_x_at) / RFU IGFBP7 (11715501_s_at) / Fold change /veh IGFBP7 (11715501_s_at) / RFU REEP3 (11722064_at) / Fold change /veh REEP3 (11722064_at) / RFU IGLL1 (11728026_x_at) / Fold change /veh IGLL1 (11728026_x_at): dose or concentration left out as unconfirmed
Settings: MV-4-11 cells, 48 hours

With Nc1ncn([C@@H]2O[C@H](CO)[C@@H](O)[C@H]2O)c(=O)n1 [azacitidine] the “Fold change /veh PODN (11730768_x_at)” value was 1.12.
